Biological target: T1, human P2Y12 receptor (Homo sapiens, UniProt Q9H244)
T1 construct: expressed in transfected cells; host or cells: CHO (Chinese Hamster Ovary) cells
Assay: P2Y12 receptor binding assay (displacement of tritium-labeled 2-methyl-S-ADP on CHO cells)
Details: CHO cells with recombinant human P2Y12 receptor, 2 hours at room temperature
Description: The ability of the compounds of formulae (I) and (III) to bind to the P2Y12 receptor may be measured by methods similar to those described in Gachet C. et al., Br. J. Hematol. 1995, 91, 434-444 and by the method described below in Example 16.
Chinese Hamster Ovary (CHO) cells with recombinant expression of the human P2Y12 receptor were cultured in 24 well cell-culture plates. Cells were washed three times with binding buffer (50 mM Tris pH 7.4, 100 mM NaCl, 1 mM EDTA, 0.5% BSA). The cells were then incubated with 0.5 ml per well binding buffer containing tritium-labeled 2-methyl-thio-adenosine 5′-diphosphate (2-methyl-S-ADP) (between 100'000 and 300'000 dpm per well) and various concentrations of test compounds. After incubation at room temperature for 2 hours, cells were washed three times with binding buffer. Then, cells were solubilized by addition of 0.5 ml solubilization buffer (SDS, NaOH, EDTA). The content of each well was then transferred into beta-counter vials and 2.0 ml of Ultima Gold Scintillation liquid was added.
The test is conducted as described hereinabove. […] Exemplary IC50 values are given below.

T1 sequence (Q9H244 whole entry): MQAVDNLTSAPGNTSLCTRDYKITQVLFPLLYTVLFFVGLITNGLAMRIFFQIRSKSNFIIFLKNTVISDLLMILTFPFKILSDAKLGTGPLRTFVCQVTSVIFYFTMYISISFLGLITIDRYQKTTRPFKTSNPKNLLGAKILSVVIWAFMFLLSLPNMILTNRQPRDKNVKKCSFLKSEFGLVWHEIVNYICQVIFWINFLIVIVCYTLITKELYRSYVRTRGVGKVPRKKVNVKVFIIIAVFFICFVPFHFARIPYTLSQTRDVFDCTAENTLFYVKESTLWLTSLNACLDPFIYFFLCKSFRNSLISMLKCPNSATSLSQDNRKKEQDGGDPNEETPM

Row | SMILES | IC50 [nM]
1 | COc1ccc(C=C2C(=O)NN(c3ccccc3)C2=O)c(C)c1C [Example 2a7, 4-(2,3-Dimethyl-4-methoxy-benzylidene)-1-phenyl-pyrazolidine-3,5-dione] | 190
2 | CCOc1ccc(C=C2C(=O)NN(c3ccccc3)C2=O)cc1C [Example 2a12, 4-(4-Ethoxy-3-methyl-benzylidene)-1-phenyl-pyrazolidine-3,5-dione] | 470
3 | CCCOc1ccc(C=C2C(=O)NN(c3ccccc3)C2=O)c(OCCC)n1 [Example 2a35, 4-[1-(2,6-Dipropoxy-pyridin-3-yl)-methylidene]-1-phenyl-pyrazolidine-3,5-dione] | 370
4 | CCCOc1ccc(C=C2C(=O)NN(c3ccccc3)C2=O)c(OCCCCO)c1C [Example 2a43, 4-[1-[2-(4-Hydroxy-butoxy)-3-methyl-4-propoxy-phenyl]-methylidene]-1-phenyl-pyrazolidine-3,5-dione] | 5
5 | CCCOc1ccc(C=C2C(=O)NN(c3ccccn3)C2=O)c(C)c1C [Example 4a2, 4-(2,3-Dimethyl-4-propoxy-benzylidene)-1-pyridin-2-yl-pyrazolidine-3,5-dione] | 140
6 | CCCOc1ccc(C=C2C(=O)NN(c3ccc(F)cc3)C2=O)c(C)c1C [Example 8a, 4-(2,3-Dimethyl-4-propoxy-benzylidene)-1-(4-fluoro-phenyl)-pyrazolidine-3,5-dione] | 83
7 | CCCOc1ccc(C=C2C(=O)NNC2=O)c2c1CCCC2 [Example 12a3, 4-(4-Propoxy-5,6,7,8-tetrahydro-naphthalen-1-ylmethylene)-pyrazolidine-3,5-dione] | 55
8 | CCCOc1ccc(C=C2C(=O)NN(C(C)=O)C2=O)c(C)c1C [Example 15, 1-Acetyl-4-[1-(2,3-dimethyl-4-propoxy-phenyl)-methylidene]-pyrazolidine-3,5-dione] | 9600

Continued, values first:

Row | IC50 [nM] | SMILES
9 | 24 | CCCOc1ccc(C=C2C(=O)NN(c3ccccc3)C2=O)c(C)c1C [Example 1, 4-(2,3-Dimethyl-4-propoxy-benzylidene)-1-phenyl-pyrazolidine-3,5-dione]
10 | 30 | CCCOc1ccc(C=C2C(=O)NN(c3ccccc3)C2=O)c2c1CCCC2 [Example 2a25, 1-Phenyl-4-(4-propoxy-5,6,7,8-tetrahydro-naphthalen-1-ylmethylene)-pyrazolidine-3,5-dione]
11 | 10 | CCCOc1ccc(C=C2C(=O)NN(c3ccccc3)C2=O)c2cnccc12 [Example 2a30, 1-Phenyl-4-[1-(5-propoxy-isoquinolin-8-yl)-methylidene]-pyrazolidine-3,5-dione]
12 | 15 | CCCOc1ccc(C=C2C(=O)NN(c3ccccc3)C2=O)c(OCCOC)c1C [Example 2a39, 4-[1-[2-(2-Methoxy-ethoxy)-3-methyl-4-propoxy-phenyl]-methylidene]-1-phenyl-pyrazolidine-3,5-dione]
13 | 1.6 | CCCOc1ccc(C=C2C(=O)NN(c3ccccc3)C2=O)c(OCCCCC(=O)O)c1C [Example 2a52, 4-[1-[2-(4-Carboxy-butyloxy)-3-methyl-4-propoxy-phenyl]-methylidene]-1-phenyl-pyrazolidine-3,5-dione]
14 | 1 | CCCOc1ccc(C=C2C(=O)NN(c3ccccc3)C2=O)c(OC[C@H](O)CC(=O)O)c1C [Example 2a63, 4-[1-[2-((2R)-3-Carboxy-2-hydroxy-propoxy)-3-methyl-4-propoxy-phenyl]-methylidene]-1-phenyl-pyrazolidine-3,5-dione]
15 | 0.8 | CCCOc1ccc(C=C2C(=O)NN(c3ccccc3)C2=O)c(OC[C@@H](O)CC(=O)O)c1C [Example 2a64, 4-[1-[2-((2S)-3-Carboxy-2-hydroxy-propoxy)-3-methyl-4-propoxy-phenyl]-methylidene]-1-phenyl-pyrazolidine-3,5-dione]
16 | 3 | CCCOc1ccc(C=C2C(=O)NN(c3ccccc3)C2=O)c(OC[C@H](O)[C@@H](O)C(=O)O)c1C [Example 2a71, 4-[1-[2-((2S,3R)-3-carboxy-2,3-dihydroxy-propoxy)-3-methyl-4-propoxy-phenyl]-methylidene]-1-phenyl-pyrazolidine-3,5-dione]
17 | 40 | CCCOc1ccc(C=C2C(=O)NNC2=O)c(OCCC)c1C [Example 12a9, 4-(3-Methyl-2,4-dipropoxy-benzylidene)-pyrazolidine-3,5-dione]

Source: US20070037846A1, “Pyrazolidinedione derivatives” (ACTELION PHARMACEUTICALS, LTD., priority 2003, published 2007)
